# “And” between values parts separate entries of the source, which are not always exact repeats. Identical values can stand only once.
# Assays:
# PTP1B [1] = target: T1, PTP1B (Homo sapiens, UniProt P18031); assay: PTP1B inhibitory assay (p-NPP substrate); type: biochemical; conditions: absorbance at 405 nm, mean ± SD, three independent experiments, read-out: IC50 against PTP1B
# T1 sequence (P18031 1-435): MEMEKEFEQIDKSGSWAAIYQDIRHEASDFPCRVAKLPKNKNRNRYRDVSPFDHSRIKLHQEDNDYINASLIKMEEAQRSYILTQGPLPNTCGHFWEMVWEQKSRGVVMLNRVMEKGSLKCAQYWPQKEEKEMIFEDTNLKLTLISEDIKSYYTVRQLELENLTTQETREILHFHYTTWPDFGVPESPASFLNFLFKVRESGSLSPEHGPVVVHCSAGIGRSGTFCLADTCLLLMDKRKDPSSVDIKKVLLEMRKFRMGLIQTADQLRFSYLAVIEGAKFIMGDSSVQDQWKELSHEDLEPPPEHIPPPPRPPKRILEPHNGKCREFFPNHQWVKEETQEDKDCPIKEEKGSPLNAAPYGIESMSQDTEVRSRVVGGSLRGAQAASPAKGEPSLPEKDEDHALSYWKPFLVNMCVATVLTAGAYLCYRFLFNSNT
# Method: The p-nitrophenyl phosphate (p-NPP) was used as a substrate to evaluate enzyme inhibition assays, following a previously established protocol. The final assay volume was 100 μL. The 75 μL reaction buffer containing 50 mM HEPES, 100 mM NaCl, 1 mM EDTA, and 1 mM dithiothreitol, 10 μL protein, and 5 μL sample were added to a 96-well plate and incubated at room temperature for 15 min. Subsequently, 10 μL of reaction buffer containing p-NPP was added to the reaction system. Sodium orthovanadate (Na₃VO₄) and dimethyl sulfoxide (DMSO) were used as the positive and negative controls, respectively. Enzymatic activity was determined by measuring absorbance at 405 nm. The half-maximal inhibitory concentration (IC₅₀) values were obtained from three independent experiments. The percentage of inhibition was calculated using the following equation: ODcontrol-ODblank-ODcompound-ODblank/ODcontrol-ODblank×100%
# PTP1B [2] = target: T1, PTP1B; assay: Inhibition kinetic analysis (Lineweaver–Burk); type: biochemical; conditions: for Type of inhibition of PTP1B: Lineweaver–Burk double-reciprocal plot; for Vmax in presence of compound: p-NPP substrate, increasing inhibitor concentration
# Method: The experimental procedure followed that described in the enzyme inhibition assay. The data were represented using Lineweaver–Burk double-reciprocal plots. The inhibition constants (Ki and Kis) were determined from the secondary plots of the slopes and intercepts derived from the Lineweaver–Burk plots.
Compound,IC50 (PTP1B [1]),Type of inhibition of PTP1B (PTP1B [2]),Vmax in presence of compound (PTP1B [2])
"CC1Cc2c3c(c(Cl)c(O)c2C(=O)O1)OC1(C)CCC2(O)OC4(C(C)(C)O)CCC2(C)C1(C3)O4 (stereo not drawn) [Compound 6, talarine P]",14.3 ± 0.86 µM,,
"CC1Cc2c3c(cc(O)c2C(=O)O1)OC1(C)CCC(=O)C2(C)CC=C(C(C)(C)O)OC12C3 (stereo not drawn) [Compound 2, talarine L]",1.74 ± 3.81 µM,competitive inhibitors,unchanged
"COC1(C(C)C)CCC2(C)C(=O)CCC3(C)Oc4c(Cl)c(O)c5c(c4CC32O1)CC(C)OC5=O (stereo not drawn) [Compound 3, talarine M]",8.54 µM and 17.6 µM,,
"CC(=O)O[C@@H]1c2c3c(cc(O)c2C(=O)O[C@@H]1C)O[C@]1(C)CCC(=O)[C@]2(C)CC=C(C(C)C)O[C@]12C3 [Compound 12, talaromyolide J]",3.03 ± 2.25 µM,competitive inhibitors,unchanged
"CC(=O)OC1c2c3c(c(Cl)c(O)c2C(=O)OC1C)OC1(C)CCC2(O)OC4(C(C)(C)O)CCC2(C)C1(C3)O4 (stereo not drawn) [Compound 5, talarine O]",6.57 ± 1.47 µM,,
"CC1Cc2c3c(cc(O)c2C(=O)O1)OC1(C)CCC(O)C2(C)CCC(=O)OC12C3 (stereo not drawn) [Compound 1, talarine K]",16.5 ± 0.6 µM,,
"COC1(C(C)C)CCC2(C)C(=O)CCC3(C)Oc4cc(O)c5c(c4CC32O1)C(OC(C)=O)C(C)OC5=O (stereo not drawn) [Compound 4, talarine N]",8.54 ± 1.52 µM,,
"CC1OC(=O)c2c(O)c(Cl)c3c(c2C1O)CC12OC4(O)CCC1(C)C(O)(CCC2(C)O3)C4(C)C (stereo not drawn) [Compound 7, talarine Q]",15.6 ± 1.6 µM,,

# Reference: paper PMC12274187, “Novel polycyclic meroterpenoids with protein tyrosine phosphatase 1B inhibitory activity isolated from desert-derived fungi Talaromyces sp. HMT-8” (Natural Products and Bioprospecting, 2025)
